Laboratory results published in US20170190671A1, “BIS(ARYL)CATECHOL DERIVATIVES AS HERBICIDES” (E I DU PONT DE NEMOURS AND COMPANY, priority 2014, published 2017).

Experiments:
Assay in all cases: Test C postemergence
Format in all cases: in vivo
[1] = tested on: Italian ryegrass (Lolium multiflorum); conditions: Lolium multiflorum, post-emergence, 336 h, Postemergence, scale 0 to 100, read-out: Plant response rating, Ryegrass, Italian
Method in brief: (§1)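 Visual ratings (0 none to 100 complete control) were made 13 to 15 days after treatment, relative to controls. Test chemicals, formulated in a non-phytotoxic solvent mixture with surfactant, were applied in the greenhouse preemergence to seeded loam-sand soil or postemergence to plants 2 to 18 cm tall.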

[2] = tested on: barnyardgrass (Echinochloa crus-galli); conditions: Echinochloa crus-galli, post-emergence, Postemergence, scale 0 to 100, read-out: Plant response rating, Barnyardgrass
Method in brief: as §1

[3] = tested on: blackgrass (Alopecurus myosuroides); conditions: Alopecurus myosuroides, post-emergence, 336 h, Postemergence, scale 0 to 100, read-out: Plant response rating, Blackgrass
Method in brief: as §1

[4] = tested on: corn (Zea mays); conditions: Zea mays, post-emergence, 336 h, Postemergence, scale 0 to 100
Method in brief: as §1

[5] = tested on: giant foxtail (Setaria faberii); conditions: Setaria faberi, post-emergence, 336 h, Postemergence, scale 0 to 100, read-out: Plant response rating, Foxtail, Giant
Method in brief: as §1

[6] = tested on: johnsongrass (Sorghum halepense); conditions: Sorghum halepense, post-emergence, 336 h, Postemergence, scale 0 to 100, read-out: Plant response rating, Johnsongrass
Method in brief: as §1

[7] = tested on: lambsquarters (Chenopodium album); conditions: Chenopodium album, post-emergence, 336 h, Postemergence, scale 0 to 100, read-out: Plant response rating, Lambsquarters
Method in brief: as §1

[8] = tested on: large (Lg) crabgrass (Digitaria sanguinalis); conditions: Digitaria sanguinalis, post-emergence, 336 h, Postemergence, scale 0 to 100, read-out: Plant response rating, Crabgrass, Large
Method in brief: as §1

[9] = tested on: morningglory (Ipomoea coccinea); conditions: Ipomoea, post-emergence, 336 h, Postemergence, scale 0 to 100, read-out: Plant response rating, Morningglory
Method in brief: as §1

[10] = tested on: oilseed rape (Brassica napus); conditions: Brassica napus, post-emergence, Postemergence, scale 0 to 100, read-out: Plant response rating, Oilseed Rape
Method in brief: as §1

[11] = tested on: ragweed (common ragweed, Ambrosia elatior); conditions: Ambrosia artemisiifolia, post-emergence, 336 h, Postemergence, scale 0 to 100, read-out: Plant response rating, Ragweed
Method in brief: as §1

[12] = tested on: soybean (Glycine max); conditions: Glycine max, post-emergence, Postemergence, scale 0 to 100, read-out: Plant response rating, Soybean
Method in brief: as §1

[13] = tested on: velvetleaf (Abutilon theophrasti); conditions: Abutilon theophrasti, post-emergence, Postemergence, scale 0 to 100, read-out: Plant response rating, Velvetleaf
Method in brief: as §1

[14] = tested on: winter wheat (Triticum aestivum); conditions: Triticum aestivum, post-emergence, 336 h, Postemergence, scale 0 to 100, read-out: Plant response rating, Wheat
Method in brief: as §1

## Fc1cccc(Oc2ncc(Cl)cn2)c1Oc1ncc(Br)cn1 [Compound 27, 5-bromo-2-[2-fluoro-6-[(5-chloro-2-pyrimidinyl)oxy]phenoxy]pyrimidine]
[1]; 31 g ai/ha
  pest or weed control at 31 g/ha: 0%
[1]; 62 g ai/ha
  pest or weed control at 62 g/ha: 0%
[1]; 125 g ai/ha
  pest or weed control at 125 g/ha: 5%
[1]; 250 g ai/ha
  pest or weed control at 250 g/ha: 5%
[2]; 31 g ai/ha
  pest or weed control at 31 g/ha: 5%
[2]; 62 g ai/ha
  pest or weed control at 62 g/ha: 5%
[2]; 125 g ai/ha
  pest or weed control at 125 g/ha: 5%
[2]; 250 g ai/ha
  pest or weed control at 250 g/ha: 5%
[3]; 31 g ai/ha
  pest or weed control at 31 g/ha: 5%
[3]; 62 g ai/ha
  pest or weed control at 62 g/ha: 5%
[3]; 125 g ai/ha
  pest or weed control at 125 g/ha: 5%
[3]; 250 g ai/ha
  pest or weed control at 250 g/ha: 5%
[4]; 31 g ai/ha
  Corn plant response rating (crop injury, 0 = no effect, 100 = complete kill) at 31 g/ha: 10%
[4]; 62 g ai/ha
  Corn plant response rating (crop injury, 0 = no effect, 100 = complete kill) at 62 g/ha: 15%
[4]; 125 g ai/ha
  Corn plant response rating (crop injury, 0 = no effect, 100 = complete kill) at 125 g/ha: 20%
[4]; 250 g ai/ha
  Corn plant response rating (crop injury, 0 = no effect, 100 = complete kill) at 250 g/ha: 25%
[5]; 31 g ai/ha
  pest or weed control at 31 g/ha: 0%
[5]; 62 g ai/ha
  pest or weed control at 62 g/ha: 5%
[5]; 125 g ai/ha
  pest or weed control at 125 g/ha: 5%
[5]; 250 g ai/ha
  pest or weed control at 250 g/ha: 10%
[6]; 31 g ai/ha
  pest or weed control at 31 g/ha: 0%
[6]; 62 g ai/ha
  pest or weed control at 62 g/ha: 5%
[6]; 125 g ai/ha
  pest or weed control at 125 g/ha: 5%
[6]; 250 g ai/ha
  pest or weed control at 250 g/ha: 10%
[7]; 31 g ai/ha
  pest or weed control at 31 g/ha: 55%
[7]; 62 g ai/ha
  pest or weed control at 62 g/ha: 65%
[7]; 125 g ai/ha
  pest or weed control at 125 g/ha: 80%
[7]; 250 g ai/ha
  pest or weed control at 250 g/ha: 95%
[8]; 31 g ai/ha
  pest or weed control at 31 g/ha: 5%
[8]; 62 g ai/ha
  pest or weed control at 62 g/ha: 5%
[8]; 125 g ai/ha
  pest or weed control at 125 g/ha: 10%
[8]; 250 g ai/ha
  pest or weed control at 250 g/ha: 20%
[9]; 31 g ai/ha
  pest or weed control at 31 g/ha: 65%
[9]; 62 g ai/ha
  pest or weed control at 62 g/ha: 75%
[9]; 125 g ai/ha
  pest or weed control at 125 g/ha: 70%
[9]; 250 g ai/ha
  pest or weed control at 250 g/ha: 90%
[10]; 31 g ai/ha
  plant injury at 31 g/ha: 30%
[10]; 62 g ai/ha
  plant injury at 62 g/ha: 50%
[10]; 125 g ai/ha
  plant injury at 125 g/ha: 55%
[10]; 250 g ai/ha
  plant injury at 250 g/ha: 60%
[11]; 31 g ai/ha
  pest or weed control at 31 g/ha: 15%
[11]; 62 g ai/ha
  pest or weed control at 62 g/ha: 35%
[11]; 125 g ai/ha
  pest or weed control at 125 g/ha: 60%
[11]; 250 g ai/ha
  pest or weed control at 250 g/ha: 80%
[12]; 31 g ai/ha
  plant injury at 31 g/ha: 65%
[12]; 62 g ai/ha
  plant injury at 62 g/ha: 75%
[12]; 125 g ai/ha
  plant injury at 125 g/ha: 90%
[12]; 250 g ai/ha
  plant injury at 250 g/ha: 90%
[13]; 31 g ai/ha
  pest or weed control at 31 g/ha: 15%
[13]; 62 g ai/ha
  pest or weed control at 62 g/ha: 35%
[13]; 125 g ai/ha
  pest or weed control at 125 g/ha: 65%
[13]; 250 g ai/ha
  pest or weed control at 250 g/ha: 65%
[14]; 31 g ai/ha
  plant injury at 31 g/ha: 0%
[14]; 62 g ai/ha
  plant injury at 62 g/ha: 0%
[14]; 125 g ai/ha
  plant injury at 125 g/ha: 0%
[14]; 250 g ai/ha
  plant injury at 250 g/ha: 0%
